From article PMC9387934, “Randomized single oral dose phase 1 study of safety, tolerability, and pharmacokinetics of Iminosugar UV-4 Hydrochloride (UV-4B) in healthy subjects” (PLoS Neglected Tropical Diseases, 2022)
Where a name gives a salt, the structure may show the parent alone.

Test: Phase 1a single ascending dose study: UV-4 in pooled urine, urinary recovery and renal clearance
Type: in vivo, human
Details: urine; for Cumulative Amount Ae(0-last): corresponds to Ae(0-48); for Cumulative Percent fe(0-last): corresponds to fe(0-48)
Method: Serial blood samples were collected at pre-dose (0 hour) and 0.5, 1, 1.5, 2, 2.5, 3, 4, 6, 9, 12, 18, 24, 36, and 48 hours post-dose for assessment of UV-4 concentrations in plasma. Pooled urine samples were collected at pre-dose (-12 to 0 hour) and from 0 to 6, 6 to 12, 12 to 24, and 24 to 48 hours post-dose for assessment of UV-4 concentrations in urine. Plasma and urine concentrations of UV-4 were determined by means of validated, sensitive, and specific high-performance liquid chromatography/tandem mass spectrometric (LC-MS/MS) assays. UV-4 plasma and urine concentrations and PK parameters were listed and summarized by dose, as appropriate. Only the 48 subjects who received active investigational product were included in the PK analysis population.
8.2.3 Specimen Preparation, Handling, and Shipping
8.2.3.1 Instructions for Specimen Preparation, Handling, and Storage
The collected PK blood samples (2 mL) will be placed on ice after blood draw, and within 1 hour centrifuged at room temperature at approximately 3000 revolutions per minute for 15 minutes. Plasma will then be harvested and split into 4 aliquots of approximately 250 μ L and stored frozen at -20°C until shipped.
Urine samples (approximately 10 mL) for determination of UV-4 concentrations in urine will be taken from the total volume provided during each collection period. The total volume of each urine collection will be recorded along with the start/stop time for each urine collection interval.
Analysis of plasma and urine for UV-4 will be performed by the qualified bioanalytical laboratory, Quintiles Bioservices, Inc., Ithaca, New York 14950. Instructions for the proper preparation, handling, storage and shipping of specimens will be provided separately in a study-specific laboratory manual (i.e., Biopacket).
8.2.3.2 Specimen Shipment […]
The following single-dose urine PK parameters will be estimated from the UV-4 urine concentration-time data collected, as appropriate:
Ae Amount of UV-4 excreted in urine unchanged, calculated for each collection interval and cumulatively across intervals fe Fraction of UV-4 excreted in urine unchanged, calculated for each collection interval and cumulatively across intervals […]
Additional UV-4 PK parameters may be calculated at the discretion of the […]
Plasma concentrations and plasma and urine PK parameters will be summarized by treatment using descriptive statistics, as appropriate. Figures for the arithmetic mean (and SD) concentration-time data will be presented for all doses on both a linear and semi-logarithmic scale. Individual concentration-time data will be graphically presented on linear and semi-logarithmic scales. Scatter plots of individual and geometric mean PK parameters versus dose will be presented. Additional graphical presentations of PK data may be added at the discretion of the PK analyst.
Dose proportionality of Cmax, AUC(0-last), and AUC(0-inf) will be assessed graphically and statistically using the power model approach with the logarithm of PK parameters AUC(0-inf) and Cmax as the dependent variables and the logarithm of the dose as the independent variable: ([AUC(0-inf), AUC(0-last), or Cmax]=α *doseβ).
11.4.7 Deviation from Original Analysis Plan
Deviations from the formal statistical analysis plan will be noted in the final Clinical Study

[1] = Cohort 4, 90 mg single oral dose, Median
[2] = Cohort 5, 180 mg single oral dose, Ar Mean
[3] = Cohort 5, 180 mg single oral dose, Median
[4] = Cohort 6, 360 mg single oral dose, Ar Mean
[5] = Cohort 6, 360 mg single oral dose, Median
[6] = Cohort 7, 720 mg single oral dose, Ar Mean
[7] = Cohort 7, 720 mg single oral dose, Median
[8] = Cohort 8, 1000 mg single oral dose, Ar Mean
[9] = Cohort 8, 1000 mg single oral dose, Median

COCCCCCCCCCN1C[C@H](O)[C@@H](O)[C@H](O)[C@H]1CO [UV-4B, N-(9’-methoxynonyl)-1-deoxynojirimycin hydrochloride]
By-Interval Amount Ae(12-24) [1]: 4.01 mg | By-Interval Amount Ae(24-48) [1]: 1.50 mg | By-Interval Percent fe(0-6) [1]: 43.6% | By-Interval Percent fe(6-12) [1]: 7.07% | By-Interval Percent fe(12-24) [1]: 4.46% | By-Interval Percent fe(24-48) [1]: 1.66% | Cumulative Amount Ae(0-12) [1]: 44.2 mg | Cumulative Amount Ae(0-24) [1]: 47.8 mg | Cumulative Percent fe(0-12) [1]: 49.1% | Cumulative Percent fe(0-24) [1]: 53.1% | Cumulative Amount Ae(0-last) [1]: 49.7 mg | Cumulative Percent fe(0-last) [1]: 55.3% | By-Interval Amount Ae(0-6) [2]: 77.5 mg | By-Interval Amount Ae(6-12) [2]: 12.1 mg | By-Interval Amount Ae(12-24) [2]: 6.06 mg | By-Interval Amount Ae(24-48) [2]: 2.43 mg | By-Interval Percent fe(0-6) [2]: 43.0% | By-Interval Percent fe(6-12) [2]: 6.74% | By-Interval Percent fe(12-24) [2]: 3.37% | By-Interval Percent fe(24-48) [2]: 1.35% | Cumulative Amount Ae(0-12) [2]: 89.6 mg | Cumulative Amount Ae(0-24) [2]: 95.7 mg | Cumulative Percent fe(0-12) [2]: 49.8% | Cumulative Percent fe(0-24) [2]: 53.1% | Cumulative Amount Ae(0-last) [2]: 97.9 mg | Cumulative Percent fe(0-last) [2]: 54.5% | By-Interval Amount Ae(0-6) [3]: 77.7 mg | By-Interval Amount Ae(6-12) [3]: 12.1 mg | By-Interval Amount Ae(12-24) [3]: 5.76 mg | By-Interval Amount Ae(24-48) [3]: 2.20 mg | By-Interval Percent fe(0-6) [3]: 43.2% | By-Interval Percent fe(6-12) [3]: 6.72% | By-Interval Percent fe(12-24) [3]: 3.20% | By-Interval Percent fe(24-48) [3]: 1.22% | Cumulative Amount Ae(0-12) [3]: 89.5 mg | Cumulative Amount Ae(0-24) [3]: 96.8 mg | Cumulative Percent fe(0-12) [3]: 49.7% | Cumulative Percent fe(0-24) [3]: 53.8% | Cumulative Amount Ae(0-last) [3]: 99.8 mg | Cumulative Percent fe(0-last) [3]: 55.6% | By-Interval Amount Ae(0-6) [4]: 159 mg | By-Interval Amount Ae(6-12) [4]: 19.1 mg | By-Interval Amount Ae(12-24) [4]: 7.09 mg | By-Interval Amount Ae(24-48) [4]: 2.83 mg | By-Interval Percent fe(0-6) [4]: 44.2% | By-Interval Percent fe(6-12) [4]: 5.32% | By-Interval Percent fe(12-24) [4]: 1.97% | By-Interval Percent fe(24-48) [4]: 0.787% | Cumulative Amount Ae(0-12) [4]: 178 mg | Cumulative Amount Ae(0-24) [4]: 185 mg | Cumulative Percent fe(0-12) [4]: 49.5% | Cumulative Percent fe(0-24) [4]: 51.5% | Cumulative Amount Ae(0-last) [4]: 188 mg | Cumulative Percent fe(0-last) [4]: 52.3% | By-Interval Amount Ae(0-6) [5]: 153 mg | By-Interval Amount Ae(6-12) [5]: 20.0 mg | By-Interval Amount Ae(12-24) [5]: 6.73 mg | By-Interval Amount Ae(24-48) [5]: 2.89 mg | By-Interval Percent fe(0-6) [5]: 42.4% | By-Interval Percent fe(6-12) [5]: 5.55% | By-Interval Percent fe(12-24) [5]: 1.87% | By-Interval Percent fe(24-48) [5]: 0.803% | Cumulative Amount Ae(0-12) [5]: 172 mg | Cumulative Amount Ae(0-24) [5]: 178 mg | Cumulative Percent fe(0-12) [5]: 47.8% | Cumulative Percent fe(0-24) [5]: 49.5% | Cumulative Amount Ae(0-last) [5]: 182 mg | Cumulative Percent fe(0-last) [5]: 50.4% | By-Interval Amount Ae(0-6) [6]: 301 mg | By-Interval Amount Ae(6-12) [6]: 42.5 mg | By-Interval Amount Ae(12-24) [6]: 11.7 mg | By-Interval Amount Ae(24-48) [6]: 4.09 mg | By-Interval Percent fe(0-6) [6]: 41.8% | By-Interval Percent fe(6-12) [6]: 5.90% | By-Interval Percent fe(12-24) [6]: 1.63% | By-Interval Percent fe(24-48) [6]: 0.569% | Cumulative Amount Ae(0-12) [6]: 344 mg | Cumulative Amount Ae(0-24) [6]: 355 mg | Cumulative Percent fe(0-12) [6]: 47.7% | Cumulative Percent fe(0-24) [6]: 49.4% | Cumulative Amount Ae(0-last) [6]: 360 mg | Cumulative Percent fe(0-last) [6]: 49.9% | By-Interval Amount Ae(0-6) [7]: 285 mg | By-Interval Amount Ae(6-12) [7]: 45.7 mg | By-Interval Amount Ae(12-24) [7]: 12.1 mg | By-Interval Amount Ae(24-48) [7]: 4.53 mg | By-Interval Percent fe(0-6) [7]: 39.6% | By-Interval Percent fe(6-12) [7]: 6.34% | By-Interval Percent fe(12-24) [7]: 1.68% | By-Interval Percent fe(24-48) [7]: 0.630% | Cumulative Amount Ae(0-12) [7]: 332 mg | Cumulative Amount Ae(0-24) [7]: 345 mg | Cumulative Percent fe(0-12) [7]: 46.1% | Cumulative Percent fe(0-24) [7]: 47.9% | Cumulative Amount Ae(0-last) [7]: 350 mg | Cumulative Percent fe(0-last) [7]: 48.5% | By-Interval Amount Ae(0-6) [8]: 428 mg | By-Interval Amount Ae(6-12) [8]: 53.7 mg | By-Interval Amount Ae(12-24) [8]: 16.4 mg | By-Interval Amount Ae(24-48) [8]: 5.21 mg | By-Interval Percent fe(12-24) [8]: 1.64% | Cumulative Amount Ae(0-12) [8]: 482 mg | Cumulative Amount Ae(0-24) [8]: 498 mg | Cumulative Amount Ae(0-last) [8]: 504 mg | By-Interval Amount Ae(0-6) [9]: 421 mg | By-Interval Amount Ae(6-12) [9]: 56.1 mg | By-Interval Amount Ae(12-24) [9]: 16.6 mg | By-Interval Amount Ae(24-48) [9]: 5.03 mg | Cumulative Amount Ae(0-12) [9]: 475 mg | Cumulative Amount Ae(0-24) [9]: 496 mg | Cumulative Amount Ae(0-last) [9]: 501 mg
